pIC50: −log10 of the molar value. Values after ≈ are worked out from the molar mass of the structure shown. Where two headings read alike, the source gives them in different places.
Experiments:
[1] = tested on: Shigella propagation in Caco2 cells; test: Inhibition of Shigella propagation in Caco2 cells assay; assay type: cell-based, Shigella flexneri; conditions: for pIC50: INCACO2CELLS, Caco-2
Procedure: The inhibition of Shigella propagation in Caco2 cells assay was performed following the previously described protocol based on microcarrier cell culture which models the in vivo three-dimensional environment with the minor modifications. This protocol will be described in a forthcoming paper (V. Phat, A. Lim, S. Lozano, C. De Cozar-Gallardo, M. Castellote-Alvaro, J. Rodrigues, A. Villegas, D. Alvarez, E. Alvaro, L. Ballell-Pages, S. Baker, unpublished data) and is available upon request (see Data Availability Statement).

[2] = target: T1, Nano-Luc reporter (S. flexneri 2457T-nl reporter strain) (Oplophorus gracilirostris, UniProt Q9GV45, A31E/A60N/A81I/F95D/I117V/K70R/L54V/L99Q/M102K/N193R/P142E/Q151K/Q38R/Q45L/V71I/Y165I); test: Nano-Luc inhibition (assay readout interference); assay type: cell-based
T1 construct: expressed in transfected cells; host or cells: Shigella flexneri serotype 2a strain 2457T carrying plasmid pMK-RQ-nl

[3] = tested on: S. flexneri 2457T-nl in THP-1 macrophages; test: Shigella intra-macrophage survival dose-response assay (luciferase readout)
Procedure: The experimental protocol for the Shigella intra-macrophage survival screen is divided into three time segments: (i) THP-1 macrophage and bacteria preparation 1 day prior to compound screen assay, (ii) THP-1 differentiation, invasion, gentamicin treatment, dispensing of infected cells onto plates pre-dispensed with compounds to be tested, and the beginning of their incubation performed on the same day, and (iii) dispensing of the Nano-Luc substrate and luminescence readout after 18 hours of incubation.
The assay was adapted to the 1,536-well plate format for the HTS. A multidrop dispenser with the small tube metal tip cassette (Thermo Fisher Scientific) was used to seed 5 µL of the cell suspension to plates pre-dispensed with compounds to be tested that were transferred to RT 1–1.5 hours before adding infected cells. Plates were incubated for 18 hours at 37°C in a humidified atmosphere with 5% CO2.
After incubation, the bacterial count is quantified by luminescence readout. Luminescence correlated linearly with the number of viable bacteria. The Nano-Luc substrate solution was prepared according to the manufacturer (Nano-Glo Luciferase Assay System, Promega, Madison, WI, USA). A multidrop dispenser with the small tube metal tip cassette (Thermo Fisher Scientific) was used to dispense 2 µL of substrate per well, and plates were stored in the dark prior to reading. Luminescence was read (0.1 s/well) on a microplate reader (EnVision, PerkinElmer) after 30 minutes of incubation at RT.
The dose-response assay was performed following the above protocol using different plate formats.

[4] = tested on: S. flexneri 2457T; test: Shigella antibacterial assay (resazurin); assay type: cell-based, Shigella flexneri; conditions: for MIC90: S. flexneri 2457T, resazurin assay
Procedure: An antibacterial assay against S. flexneri 2457T was performed according to the previously described protocol ([40]). The antibacterial assay was used to determine the MIC90 values of potential inhibitors for S. flexneri 2457T. The assay measures the effect of compounds on the bacteria using resazurin (Thermo Fisher Scientific) measurement as surrogate of bacterial viability. Briefly, to perform the extracellular dose responses, compounds were pre-dispensed in DMSO, and threefold serial dilutions were made for each compound into 384-well plate format. Bacterial inoculum for the assay was prepared in MH medium, resulting at 1 × 10^6 CFU/mL, and 5 µL of this culture was dispensed per well. Then, plates were incubated at 37°C overnight. The resazurin reagent (10 µL) was added to each well followed by an incubation at RT and darkness for 3 hours. The fluorescence intensity of the assay plates was measured using microplate reader (EnVision, PerkinElmer). For MIC90 determination, data were normalized by using DMSO at a final concentration of 0.5% as the negative control (100% bacterial growth) and moxifloxacin at a final concentration of 20 µM as the positive control (0% bacterial growth). The experiment was done in duplicate.

[5] = Shigella flexneri, THP-1, 18 h, read-out: Survival inhibition IC50
[6] = read-out: Nano-Luc interference IC50, S. flexneri 2457T-nl reporter strain in MH medium, 18 hours
[7] = Shigella flexneri, THP-1, read-out: Shigella Intra-macrophage Survival IC50

T1 sequence (Q9GV45 28-196 with tags or gaps with the stated changes limits assumed): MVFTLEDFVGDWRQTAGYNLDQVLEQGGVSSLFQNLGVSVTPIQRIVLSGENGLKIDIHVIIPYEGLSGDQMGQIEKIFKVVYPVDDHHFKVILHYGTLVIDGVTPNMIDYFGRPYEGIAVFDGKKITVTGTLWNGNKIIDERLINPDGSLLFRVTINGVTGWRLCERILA

Row | SMILES | pIC50 [1] | pIC50 [2] | pIC50 [3, 5] | also measured
1 | Cc1ccc(-n2cc(C(=O)c3cc(C)ccc3O)cc(C#N)c2=O)cc1 [AN1-152-05] | 6.52 | 4.92 | 7.00 | 
2 | CN(C(=O)Cc1cccs1)C1(C(=O)NC2CCCCC2)CCCCC1 [Compound S-185-01] | 5.37 |  | 6.15 | pIC50 [2, 6]: 5.42
3 | COc1ccc(CN(C)S(=O)(=O)c2nnc(NC(=O)c3cccc(Cl)c3)s2)cc1OC [DS-299-02] | 5.60 | 5.34 | 6.10 | 
4 | O=S(=O)(Nc1ccccc1C(F)(F)F)c1ccc(-c2ccc(F)cc2)s1 [DS1-32-05] | 5.51 | 5.52 | 6.25 | 
5 | Fc1ccc(-c2oncc2-c2nnnn2-c2ccccc2)cc1F [PT-297-02] | 5.92 | 5.31 | 6.57 | 
6 | Cc1c(-c2cccs2)[nH]c2c(C#N)cnn2c1=O [AN-5-02] | 5.68 | 6.11 | 7.05 | 
7 | N#Cc1cc(C(=O)c2ccccc2O)cn(-c2ccc(Cl)cc2)c1=O [AN1-152-02] | 6.52 | 5.43 | 8.41 | 
8 | Cc1ccc(NC(=O)CC2SC(N3N=C(c4cccs4)CC3c3ccccc3)=NC2=O)cc1 (stereo not drawn) [Compound S-10-03] | 5.96 |  | 6.21 | 
9 | CCc1cccc(CC)c1NC(=O)c1c(-c2ccccc2)noc1C [Compound S-53-01] | 5.82 | 5.92 | 6.77 | 
10 | N#Cc1ccc(C(=O)Nc2nnc(-c3ccncc3)s2)cc1 [AN2-45-02] | 4.85 |  | 6.05 | 
11 | COc1ccc(-n2cc(C(=O)c3cc(Cl)ccc3O)cc(C#N)c2=O)cc1 [AN1-152-06] | 5.41 |  | 6.31 | 
12 | c1ccc(-n2nnnc2-c2cnoc2-c2cccs2)cc1 [PT-297–03] | 5.52 | 5.09 | 6.30 | 
13 | Cc1ccc(-n2cc(C(=O)c3cc(F)ccc3O)cc(C#N)c2=O)cc1 [AN1-152-08] | 5.72 |  | 6.37 | 
14 | COc1ccc(CCNC(=O)c2nc(O)c3nnn(Cc4ccc(F)cc4)c3n2)cc1OC [Compound S-169-01] | 4.68 | 4.92 | 6.23 | 
15 | Cc1cc(CNC(=O)CCc2c(C)nc3cc(O)nn3c2C)no1 [Compound S-86-01] | 6.00 | 5.77 | 6.57 | 
16 | Cc1ccc(-n2cc(C(=O)c3cc(Cl)ccc3O)cc(C#N)c2=O)cc1 [AN1-152-04] | 5.21 |  | 6.24 | 
17 | Cc1cccc(-n2cc(C(=O)c3cc(F)ccc3O)cc(C#N)c2=O)c1 [AN1-152-09] | 5.00 |  | 6.14 | 
18 | CC(C)(C)C(=O)OCOC(=O)[C@@H]1N2C(=O)[C@@H](/N=C/N3CCCCCC3)[C@H]2SC1(C)C [Pivmecillinam, pivmecillinam] |  |  |  | MIC relative to survival IC50 (times higher) ([4]; MIC vs intra-macrophage survival IC50): very similar; MIC90 ([4]; Shigella flexneri): 1 µM (≈ 0.44 µg/mL); pIC50 [3, 7]: 6.05
19 | CO/N=C(\C(=O)N[C@@H]1C(=O)N2C(C(=O)O)=C(CSc3nc(=O)c(=O)[nH]n3C)CS[C@H]12)c1csc(N)n1 [Ceftriaxone, ceftriaxone, reference compound] |  |  |  | MIC90 ([4]; Shigella flexneri): 0.1 µM (≈ 0.0555 µg/mL); pIC50 [3, 7]: 8.00
20 | Fc1ccc(-c2oncc2-c2nnnn2-c2ccccc2)c(F)c1 [PT-297-01] | 5.68 | 5.08 | 6.37 | 
21 | COc1c(N2C[C@@H]3CCCN[C@@H]3C2)c(F)cc2c(=O)c(C(=O)O)cn(C3CC3)c12 [moxifloxacin, reference compound] |  |  |  | bacterial survival ([3]; 20 µM, macrophage permeable positive control): no detectable bacterial survival
22 | O=C(CN1CCc2ccccc2C1)Nc1cnccc1C(=O)O [Compound S-136-01] | 5.51 | 5.52 | 6.21 | 

Row | SMILES | pIC50 [1] | pIC50 [2] | pIC50 [3, 5] | also measured
23 | O=C(O)c1cn(C2CC2)c2cc(N3CCNCC3)c(F)cc2c1=O [Ciprofloxacin, ciprofloxacin, reference compound] |  |  |  | MIC90 ([4]; Shigella flexneri): 0.07 µM (≈ 0.0232 µg/mL); pIC50 [3, 7]: 8.15
24 | Cc1nn(-c2ccccc2)c(C)c1S(=O)(=O)Nc1nc2c(s1)CCCC2 [DS-61-01] | 5.64 | 5.66 | 6.30 | 
25 | COc1ccc(-n2cc(C(=O)c3cc(C)ccc3O)cc(C#N)c2=O)cc1 [AN1-152-07] | 6.70 | 4.57 | 6.68 | 
26 | N#Cc1cc(C(=O)c2ccccc2O)cn(-c2ccccn2)c1=O [AN1-152-01] | 5.57 | 4.60 | 6.51 | 
27 | CC(NC(=O)NC(C)c1cccs1)c1ccc2c(c1)OCCO2 (stereo not drawn) [Compound S-378-01] | 5.18 |  | 6.00 | 
28 | Cc1ncccc1Oc1ncc(Cl)cc1S(=O)(=O)Nc1cccc(Cl)c1 [DS-90-01] | 5.00 | 4.19 | 5.92 | 
29 | Cc1ccccc1-c1c(C#N)c(N)nc(SCc2ccccc2)c1C#N [AN1-77-01] | 4.85 |  | 6.10 | 
30 | COc1ccc(S(=O)(=O)Nc2ccc(Cl)cc2F)cc1[N+](=O)[O-] [DS2-187-03] | 5.52 |  | 6.15 | 
31 | COc1ccc2nc(NS(=O)(=O)c3cccc(C#N)c3)sc2c1 [DS-64-06] | 5.51 | 5.02 | 6.36 | 
32 | CCOc1ccc(-n2cc(C(=O)c3cc(F)ccc3O)cc(C#N)c2=O)cc1 [AN1-152-10] |  | 4.30 | 6.62 | Propagation in Caco2 IC50 [1]: Inactive
33 | Cc1noc2ncn(Cc3nc(Cc4ccccc4F)no3)c(=O)c12 [Compound S-82-01] | 4.72 | 4.72 | 6.00 | 
34 | O=S(=O)(Nc1ccc(F)cc1C(F)(F)F)c1ccc(-c2cccs2)s1 [DS1-32-04] | 5.42 |  | 6.39 | pIC50 [2, 6]: 5.51
35 | N#Cc1ccc(C(=O)Nc2cccc(-c3ccc(CN4CCNCC4)cc3)c2)cc1 [AN-30-01] |  |  | 6.06 | Propagation in Caco2 IC50 [1]: Inactive
36 | CC[C@H]1OC(=O)[C@H](C)[C@@H](O[C@H]2C[C@@](C)(OC)[C@@H](O)[C@H](C)O2)[C@H](C)[C@@H](O[C@@H]2O[C@H](C)C[C@H](N(C)C)[C@H]2O)[C@](C)(O)C[C@@H](C)CN(C)[C@H](C)[C@@H](O)[C@]1(C)O [Azithromycin, azithromycin, reference compound] |  |  |  | MIC90 ([4]; Shigella flexneri): 10 µM (≈ 7.49 µg/mL); pIC50 [3, 7]: 7.10
37 | CC(C)c1noc2ncc(C(=O)c3ccccc3O)cc12 [Compound S-316-01] | 5.72 |  | 5.89 | 
38 | Cc1ccc(C2=NN(C3=NC(=O)C(CC(=O)Nc4ccccc4)S3)C(c3ccccc3)C2)cc1 (stereo not drawn) [Compound S-10-01] | 6.30 | 4.96 | 6.39 | 
39 | COc1ccc(N2CCN(c3nc4ncccc4o3)CC2)cc1 [Compound S-281-01] | 4.62 | 4.55 | 6.19 | 
40 | CCN(C(=O)Cn1c(-c2nonc2N)nc2ccccc21)c1ccccc1 [Compound S-134-02] | 5.31 | 5.29 | 6.17 | 
41 | COc1ccc(-n2nnnc2SC(C(=O)N(C)C)c2ccccc2)cc1 (stereo not drawn) [Compound S-28-01] | 5.35 | 5.30 | 6.00 | 
42 | N#Cc1cc(C(=O)c2ccccc2O)cn(C2CCCC2)c1=O [AN1-152-03] | 5.77 | 4.21 | 6.32 | 
43 | COc1ccc(-c2ccn(CC[C@](C)(C(=O)NO)S(C)(=O)=O)c(=O)c2)c(F)c1 [PF-5081090, reference compound] |  |  |  | MIC90 [4]: 0.2 µM (≈ 0.0825 µg/mL); pIC50 ([3]; read-out: Shigella Intra-macrophage Survival IC50, commercially available antibiotics, luciferase assay): 7.22
44 | CC1(C)S[C@@H]2[C@H](/N=C/N3CCCCCC3)C(=O)N2[C@H]1C(=O)O [Mecillinam, mecillinam, reference compound] |  |  |  | MIC90 ([4]; Shigella flexneri): 0.2 µM (≈ 0.0651 µg/mL); pIC50 [3, 7]: 6.15
